US11926845B2, “Cell culture method and automatic cell culture apparatus” (Hitachi, Ltd., priority 2020, dated 2024)

Experiments:
[1] = system: human iPS cells (201B7 strain); assay: hCG secretion into culture supernatant (ELISA) of 201B7 strain cultured on coated planar mesh; type: cell-based
Procedure: In the present example, the human iPS cells (201B7 strain) were cultured by using a culture substrate in which the planar mesh made of nickel was coated with parylene or Au, and an effect of the ROCK inhibitor on cell differentiation was investigated.
A cell culture substrate was prepared in the same procedure as in the first example. The i-Matrix (Nippi Inc.) adjusted to a concentration of 50 ng/μl as a scaffold material of cells was added so as to cover the mesh and the mixture was treated at 4° C. for 3 days. Thereafter, after i-Matrix was removed, and the washing was performed with an Essential 8 medium (GIBCO Co.), the human iPS cells (201B7 strain) was adjusted in the Essential 8 medium so as to be 1×10^5/ml, and an iPS cell suspension containing 10 μM of the ROCK inhibitor (Y-27632, Wako Pure Chemical Co.) was added on the mesh in the same manner as the scaffold material, and the cells were incubated at 37° C. in the cell culture apparatus adjusted to the CO2 concentration of 5%.
After 24 hours from seeding, a total amount of iPS cell suspension was removed and replaced with a new Essential 8 medium, so that the ROCK inhibitor was completely removed once. Then, every 4 days, half the amount of culture supernatant was recovered, and the amount of culture supernatant was maintained by adding a new Essential 8 medium in an amount equal to a removed amount. The ROCK inhibitor (Y-27632, Wako Pure Chemical Co.) was added to a part of the medium of the cell culture substrate on which the 201B7 strain is seeded from Day 9 of culturing or Day 13 of the culturing so that the final concentration of the ROCK inhibitor was 20 μM, and the culturing was performed for 3 weeks.
(§1) A secretion amount of hCG, which is one of trophoblast differentiation markers, was quantified by using the recovered culture supernatant. For the quantification, a value of OD450 was detected with an absorbance plate reader (Corona Electric Co. Ltd.) by using a Human hCG ELISA Kit (Abcam Co.). Details of an ELISA reaction and a measurement method followed a manual of a kit.

253G1 strain = assay: hCG secretion into culture supernatant (ELISA) of 253G1 strain cultured on coated planar mesh; type: cell-based, human; conditions: for secretion amount of hCG, increase as compared with the case where the ROCK inhibitor was not added / secretion amount of hCG, course after the increase: 253G1 strain; for secretion amount of hCG, course after the increase: after Day 17
Procedure: Preparation of the cell culture substrate and seeding of the iPS cells were carried out in the same manner as in the second example. After 24 hours from seeding, a total amount of iPS cell suspension was removed and replaced with a new Essential 8 medium, so that the ROCK inhibitor was completely removed once. Then, every 4 days, half the amount of the culture supernatant was recovered, and the amount of culture supernatant was maintained by adding a new Essential 8 medium in an amount equal to a removed amount. The ROCK inhibitor (Y-27632, Wako Pure Chemical Co.) was added to a part of the medium of the cell culture substrate on which the 253G1 strain is seeded from Day 9 of culturing or Day 13 of the culturing so that a final concentration was 20 μM, and the culturing was performed for 3 weeks.
as §1, with “The secretion” for “A secretion”, “quantification, the” for “quantification, a”, “detected by” for “detected with”, “Electric Co.)” for “Electric Co. Ltd.)”

C[C@@H](N)[C@H]1CC[C@H](C(=O)Nc2ccncc2)CC1 [ROCK inhibitor, Y-27632]
differentiation into trophoblast ([1]; 201B7 strain on planar mesh coated with parylene or Au, re-addition of the ROCK inhibitor): promoted | secretion amount of hCG, increase as compared with the case where the ROCK inhibitor was not added ([1]; 201B7 strain, mesh coated with Au, 20 μM added from Day 9 of culturing, on Day 17): about twice | secretion amount of hCG, increase as compared with the case where the ROCK inhibitor was not added ([1]; 201B7 strain, mesh coated with Au, 20 μM added from Day 9 of culturing, on Day 21): four times | secretion amount of hCG, course after the increase ([1]; 201B7 strain, mesh coated with Au, 20 μM added from Day 13 of culturing, after Day 17): the secretion amount was maintained thereafter | secretion amount of hCG, increase as compared with the case where the ROCK inhibitor was not added ([1]; 201B7 strain, mesh coated with Au, 20 μM added from Day 13 of culturing, on Day 17): about three times | secretion amount of hCG, course after the increase ([1]; 201B7 strain, mesh coated with parylene, 20 μM added from Day 9 of culturing, after Day 13): the secretion amount was maintained thereafter | secretion amount of hCG, increase as compared with a case where the ROCK inhibitor was not added ([1]; 201B7 strain, mesh coated with parylene, 20 μM added from Day 9 of culturing, on Day 13): about twice | secretion amount of hCG, increase as compared with the case where the ROCK inhibitor was not added ([1]; 201B7 strain, mesh coated with parylene, 20 μM added from Day 13 of culturing, on Day 17): about twice | secretion amount of hCG, increase as compared with the case where the ROCK inhibitor was not added ([1]; 201B7 strain, mesh coated with parylene, 20 μM added from Day 13 of culturing, on Day 21): about three times | differentiation into trophoblast cells (253G1 strain; 253G1 strain on planar mesh coated with parylene or Au, addition of the ROCK inhibitor): promoted | secretion amount of hCG, increase as compared with the case where the ROCK inhibitor was not added (253G1 strain; mesh coated with Au, 20 μM added from Day 9 of culturing, on Day 17): about twice | secretion amount of hCG, increase as compared with the case where the ROCK inhibitor was not added (253G1 strain; mesh coated with Au, 20 μM added from Day 9 of culturing, on Day 21): about three times | secretion amount of hCG, course after the increase (253G1 strain; mesh coated with Au, 20 μM added from Day 13 of culturing): the secretion amount was maintained thereafter | secretion amount of hCG, increase as compared with the case where the ROCK inhibitor was not added (253G1 strain; mesh coated with Au, 20 μM added from Day 13 of culturing, on Day 17): five times | secretion amount of hCG, course after the increase (253G1 strain; mesh coated with parylene, 20 μM added from Day 9 of culturing): the secretion amount was maintained thereafter | secretion amount of hCG, increase as compared with the case where the ROCK inhibitor was not added (253G1 strain; mesh coated with parylene, 20 μM added from Day 9 of culturing, on Day 17): about ten times | secretion amount of hCG, increase as compared with the case where the ROCK inhibitor was not added (253G1 strain; mesh coated with parylene, 20 μM added from Day 13 of culturing, on Day 21): three times
